In US8815565B2, “Method for culturing mycoplasma contamination-free cells and method for removing mycoplasma contamination of cells” (Cellsafe Co., Ltd., priority 2010, dated 2014):
*1 amine or outer side, *2 acyl side, *3 side chain or, on linkers, in order; H or OH if unused. Where a SMILES comes first, the peptide text is derived from it. Bridges are numbered along the chain shown (N, C = ends). [ ]: non-standard residue; d: D form. X1 = CC(C)CCCCCCCCC[C@H](CC(=O)[*:1])O[*:2]

Columns and labels:
[1] = test system: Mycoplasma hyorhinis (ATCC17981s); assay: Inhibition of Mycoplasma hyorhinis cultured in PPLO medium, INT colour change; format: cell-based; details: final concentration at which INT colour change did not occur, 24 hours + 4 hours at 37° C.; for IC50: Mycoplasma, read-out: IC50
Procedure: In order to evaluate the effects of the extract and amphidinol derivatives prepared in Example 1 on mycoplasma, Mycoplasma hyorhinis (ATCC17981s) was cultured in a PPLO medium (pleuropneumonia-like organism basal medium, Difco Laboratories, Detroit, USA) supplemented with a fetal calf serum and a yeast extract, according to the method disclosed by Hayflick (Hayflick, 1965, Tex. Rep. Bio. Med. 23, 285-303). That is, 100 μl of the medium was placed on each well of a 96-well plate, and a sample (that is, the extract and amphidinol derivatives prepared in Example 1) was added to each well, such that each sample was diluted from 2 times (i.e., 2× diluted) to 12 times (i.e., 12× diluted), the starting concentration being 1 mg/ml. Mycoplasma was cultured in a PPLO medium (pleuropneumonia-like organism basal medium, Difco Laboratories, Detroit, USA) supplemented with a fetal calf serum and a yeast extract, at a temperature of 37° C. for 48 hours. The resulting culture medium was diluted with the PPLO medium at a ratio of 1:10. 100 μl of the diluted culture medium was added to each well of the 96-well plate, so that the total amount of each well was 200 μl. After culturing at a temperature of 37° C. for 24 hours, 40 μl of 0.2 mg/ml INT (p-iodonitrotetrazolium) was added thereto and culturing was further performed for 4 hours. If the medium turns pink following the culturing, the color change means that metabolism of mycoplasma actively occurs. Also, if mycoplasma is suppressed by the sample, the medium turned pink less.

[2] = test system: HepG2 cell line contaminated with mycoplasma; assay: Co-treatment with amphidinol 3 (AM3) and cyclic lipopeptide/antibiotic, PCR with mycoplasma diagnosis kit; format: cell-based
Procedure: The cell lines NIH3T3, HepG2, and Raw 264.7, which were confirmed to be contaminated with mycoplasma, were each inoculated at a concentration of 1×10^6 cells on a T-75 culture flask (NUNC, Cat. No. 156367). DMEM (GIBCO BRL, Cat. No. 12800-058) containing 10% or less of serum (GIBCO BRL, Cat. […] After culturing for 3 days, the obtained cells were treated with Trypsin-EDTA to obtain a cell solution. The resulting cells (1×10^6 cells) which was treated with amphidinol 3 (AM3) were inoculated. DMEM (GIBCO BRL, Cat. No. 12800-058) containing 10% or less of serum (GIBCO BRL, Cat. […] After culturing for 3 days, the cells were harvested. PCR was performed thereon with a mycoplasma diagnosis kit (Promokine, Germany; Cellsafe Co., Ltd., Korea) according to the enclosed protocol. The resulting PCR products were electrophoresed on a 1% agarose gel to measure the mycoplasma contamination.

Molecule	IC50 [1] [µg/mL]	minimum inhibitory concentration (no INT colour change) [1]	other results
C=C/C=C/CC/C=C/C=C/C=C/CC/C=C/C(O)C(O)C1OC(C(O)C(O)C(=C)CCC(O)C2CC(O)C(O)C(C(O)C(O)/C=C(\C)CCC(O)CC(O)C(O)C(C)CC(O)C(O)C(C)CCC(O)CCCC(O)CCCC(O)CCCC(O)/C=C/CC(CO)OS(=O)(=O)[O-])O2)CC(O)C1O.[Na+] (stereo not drawn) [AM1, amphidinol 1]	1 to 20		
C=CCC/C=C/C=C/C=C/CC/C=C/C(O)C(O)C1OC(C(O)C(O)C(=C)CCC(O)C2CC(O)C(O)C(C(O)C(O)/C=C(\C)CCC(O)CC(O)C(O)C(C)CC(O)C(O)CCCC(O)CCCC(O)CCCC(O)/C=C/CC(O)/C=C/CC(O)CO)O2)CC(O)C1O (stereo not drawn) [AM6, amphidinol 6]		+++ (+++: 1~20 μg/ml)	
C=C/C=C/CC/C=C/C=C/C=C/CC/C=C/C(O)C(O)C1OC(C(O)C(O)C(=C)CCC(O)C2CC(O)C(O)C(C(O)C(O)/C=C(\C)CCC(O)CC(O)C(O)C(C)C(O)CCCC(O)CCCC(O)CCCC(O)/C=C/CC(O)/C=C/CC(O)CO)O2)CC(O)C1O (stereo not drawn) [AM9, amphidinol 9]	1 to 20		
C=CCC/C=C/C=C/C=C/CC/C=C/C(O)C(O)C1OC(C(O)C(O)C(=C)CCC(O)C2CC(O)C(O)C(C(O)C(O)/C=C(\C)CCC(O)CC(O)C(O)C(C)CC(O)C(O)CCCC(O)CCCC(O)/C=C/CC(O)/C=C/CC(O)CO)O2)CC(O)C1O (stereo not drawn) [AM10]	10 to 100		
CC(C)CCCCCCCCC[C@@H]1CC(=O)N[C@@H](CCC(=O)O)C(=O)N[C@@H](CC(C)C)C(=O)N[C@H](CC(C)C)C(=O)N[C@@H](C(C)C)C(=O)N[C@@H](CC(=O)O)C(=O)N[C@H](CC(C)C)C(=O)N[C@@H](CC(C)C)C(=O)O1 [surfactin] (EL[dL]VD[dL]L; linker N-C via X1)			mycoplasma contamination ([2]; used alone, surfactin 10 or 20 μM, ciprofloxacin 1 or 5 μg/ml, rifampicin 0.5 or 1 μg/ml): mycoplasma contamination remained; mycoplasma contamination ([2]; used together with amphidinol 3 (AM3) 5 and 10 μg/ml): completely removed
amphidinol 2 [AM2]		+++ (+++: 1~20 μg/ml)	
amphidinol 5 [AM5]		+++ (+++: 1~20 μg/ml)	
amphidinol 7 [AM7]		+++ (+++: 1~20 μg/ml)	
